Assay results taken from PMC3984044 (ChemMedChem, 2013).
Structures can show the parent of a compound that is named as a salt. Where two headings read alike, the source gives them in different places.

Assays:
[1] = system: PrP^Sc levels in ScN2a-cl3 cells; assay: cells; type: cell-based, mouse
in vivo = details: mouse, po, 10 mg/kg
in vitro = details: mouse, microsomes
[2] = mouse, in vivo; cited from earlier work
[3] = mouse, microsomes
[4] = Mus musculus, read-out: EC50 ± SEM(nM)

Cc1cccc(Nc2nc(-c3ccc(-c4ccccc4)cc3)cs2)n1 [Compound 1, (4-Biphenyl-4-yl-thiazol-2-yl)-(6-methyl-pyridin-2-yl)-amine]
EC50 [1, 4]: 1290 ± 122 nM | Cmax (in vivo): 2450 ± 740 nM | half-life (in vitro): > 60 min | oral bioavailability (%F) [2]: ~40%

Cc1cccc(Nc2nc(-c3ccc(-c4ccncc4)cc3)cs2)n1 [Compound 12, (6-Methyl-pyridin-2-yl)-[4-(4-pyridin-4-yl-phenyl)-thiazol-2-yl]-amine]
fold greater antiprion potency than 1 [1]: > 10 fold | EC50 [1, 4]: 87 ± 43 nM | half-life (in vitro): > 60 min

Cc1cccc(Nc2nc(-c3ccc(-c4cc[n+]([O-])cc4)cc3)cs2)n1 [Compound 13, 4-(4-(2-((6-Methylpyridin-2-yl)amino)thiazol-4-yl)phenyl)pyridine 1-oxide]
EC50 [1, 4]: 559 ± 120 nM

Cc1cccc(Nc2nc(-c3ccc(-c4ccncc4C)cc3)cs2)n1 [Compound 14, (6-Methyl-pyridin-2-yl)-{4-[4-(3-methyl-pyridin-4-yl)-phenyl]-thiazol-2-yl}-amine trifluoro acetic acid salt]
EC50 [1, 4]: 400 ± 61 nM

Cc1cccc(Nc2nc(-c3ccc(-c4cccnc4)cc3)cs2)n1 [Compound 15, (6-Methyl-pyridin-2-yl)-[4-(4-pyridin-3-yl-phenyl)-thiazol-2-yl]-amine]
fold greater antiprion potency than 1 [1]: > 10 fold | EC50 [1, 4]: 68 ± 13 nM | half-life (in vitro): > 60 min

Cc1cccc(Nc2nc(-c3ccc(-c4ccc[n+]([O-])c4)cc3)cs2)n1 [Compound 16, 3-(4-(2-((6-Methylpyridin-2-yl)amino)thiazol-4-yl)phenyl)pyridine 1-oxide]
EC50 [1, 4]: 203 ± 10 nM | Cmax (in vivo): 900 ± 240 nM | AUC (in vivo; AUC (μM *h) Brain): 3.85 ± 0.52 µM·h | AUC (in vivo; AUC (μM *h) Plasma): 11.5 ± 0.71 µM·h | half-life (in vitro): > 60 min

Cc1cccc(Nc2nc(-c3ccc(-c4cccnc4C)cc3)cs2)n1 [Compound 17, (6-Methyl-pyridin-2-yl)-{4-[4-(2-methyl-pyridin-3-yl)-phenyl]-thiazol-2-yl}-amine trifluoro acetic acid salt]
EC50 [1, 4]: 618 ± 54 nM

Cc1cccc(Nc2nc(-c3ccc(-c4ccnn4C)cc3)cs2)n1 [Compound 18, {4-[4-(2-Methyl-2H-pyrazol-3-yl)-phenyl]-thiazol-2-yl}-(6-methyl-pyridin-2-yl)-amine]
EC50 [1, 4]: 89 ± 35 nM

Cc1cccc(Nc2nc(-c3ccc(-c4c(C)noc4C)cc3)cs2)n1 [Compound 19, {4-[4-(3,5-Dimethyl-isoxazol-4-yl)-phenyl]-thiazol-2-yl}-(6-methyl-pyridin-2-yl)-amine]
EC50 [1, 4]: 2130 ± 226 nM

Cc1cccc(Nc2nc(-c3ccc(N4CCN(C)CC4)cc3)cs2)n1 [Compound 20, {4-[4-(4-Methyl-piperazin-1-yl)-phenyl]-thiazol-2-yl}-(6-methyl-pyridin-2-yl)-amine]
EC50 [1, 4]: 840 ± 132 nM

Cc1cccc(Nc2nc(-c3ccc(N4CCOCC4)cc3)cs2)n1 [Compound 21, (6-Methyl-pyridin-2-yl)-[4-(4-morpholin-4-yl-phenyl)-thiazol-2-yl]-amine]
EC50 [1, 4]: 51 ± 7 nM

COCCOc1cccc(Nc2nc(-c3ccc(-c4ccccc4)cc3)cs2)n1 [Compound 22, 4-([1,1′-Biphenyl]-4-yl)-N-(6-(2-methoxyethoxy)pyridin-2-yl)thiazol-2-amine]
antiprion activity (in words) [1]: inactive | EC50 [1, 4]: > 10000 nM

CN(C)c1cccc(Nc2nc(-c3ccc(-c4ccccc4)cc3)cs2)n1 [Compound 23, N2-(4-([1,1′-biphenyl]-4-yl)thiazol-2-yl)-N6,N6-dimethylpyridine-2,6-diamine]
EC50 [1, 4]: 699 ± 87 nM

CN1CCN(c2cccc(Nc3nc(-c4ccc(-c5ccccc5)cc4)cs3)n2)CC1 [Compound 24, 4-([1,1′-Biphenyl]-4-yl)-N-(6-(4-methylpiperazin-1-yl)pyridin-2-yl)thiazol-2-amine]
EC50 [1, 4]: 1180 ± 206 nM

COc1ccc(-c2ccc(-c3csc(Nc4cccc(C)n4)n3)cc2)cn1 [Compound 25, {4-[4-(6-Methoxy-pyridin-3-yl)-phenyl]-thiazol-2-yl}-(6-methyl-pyridin-2-yl)-amine]
EC50 [1, 4]: 140 ± 23 nM

COCCOc1cc(-c2ccc(-c3csc(Nc4cccc(C)n4)n3)cc2)ccn1 [Compound 26, 4-(4-(2-(2-methoxyethoxy)pyridin-4-yl)phenyl)-N-(6-methylpyridin-2-yl)thiazol-2-amine]
EC50 [1, 4]: 153 ± 36 nM | Cmax (in vivo): 330 ± 160 nM | AUC (in vivo; AUC (μM *h) Brain): 1.04 ± 0.13 µM·h

COCCOc1ccc(-c2ccc(-c3csc(Nc4cccc(C)n4)n3)cc2)cn1 [Compound 27, 4-(4-(6-(2-methoxyethoxy)pyridin-3-yl)phenyl)-N-(6-methylpyridin-2-yl)thiazol-2-amine]
EC50 [1, 4]: 137 ± 13 nM | Cmax (in vivo): 970 ± 220 nM | AUC (in vivo; AUC (μM *h) Brain): 3.27 ± 0.44 µM·h | AUC (in vivo; AUC (μM *h) Plasma): 6.75 ± 0.45 µM·h | half-life (in vitro): > 60 min

Cc1cccc(Nc2nc(-c3ccc(-c4ccnc(OC(C)C)c4)cc3)cs2)n1 [Compound 28, 4-(4-(2-isopropoxypyridin-4-yl)phenyl)-N-(6-methylpyridin-2-yl)thiazol-2-amine]
EC50 [1, 4]: 2840 ± 22 nM

Cc1cccc(Nc2nc(-c3ccc(-c4ccc(OC(C)C)nc4)cc3)cs2)n1 [Compound 29, 4-(4-(6-Isopropoxypyridin-3-yl)phenyl)-N-(6-methylpyridin-2-yl)thiazol-2-amine]
EC50 [1, 4]: 5860 ± 327 nM

Cc1cccc(Nc2nc(-c3ccc(-c4ccnc(N(C)C)c4)cc3)cs2)n1 [Compound 30, 4-(4-(2-(dimethylamino)pyridin-4-yl)phenyl)-N-(6-methylpyridin-2-yl)thiazol-2-amine]
EC50 [1, 4]: 123 ± 35 nM

Cc1cccc(Nc2nc(-c3ccc(-c4ccc(N(C)C)nc4)cc3)cs2)n1 [Compound 31, 4-(4-(6-(Dimethylamino)pyridin-3-yl)phenyl)-N-(6-methylpyridin-2-yl)thiazol-2-amine]
EC50 [1, 4]: 69 ± 21 nM

Cc1cccc(Nc2nc(-c3ccc(-c4ccnc(N5CCN(C)CC5)c4)cc3)cs2)n1 [Compound 32, 4-(4-(2-(4-methylpiperazin-1-yl)pyridin-4-yl)phenyl)-N-(6-methylpyridin-2-yl)thiazol-2-amine]
EC50 [1, 4]: 759 ± 374 nM | Cmax (in vivo): 1170 ± 190 nM | AUC (in vivo; AUC (μM *h) Brain): 5.22 ± 0.1 µM·h | AUC (in vivo; AUC (μM *h) Plasma): 1.57 ± 0.15 µM·h | half-life (in vitro): 6.8 min

Cc1cccc(Nc2nc(-c3ccc(-c4ccc(N5CCN(C)CC5)nc4)cc3)cs2)n1 [Compound 33, 4-(4-(6-(4-Methylpiperazin-1-yl)pyridin-3-yl)phenyl)-N-(6-methylpyridin-2-yl)thiazol-2-amine]
EC50 [1, 4]: 96 ± 31 nM

O=C(Nc1nc(-c2ccc(-c3ccccc3)cc2)cs1)C1CC1 [Compound 34, cyclopropanecarboxylic acid (4-biphenyl-thiazol-2-yl)-amide]
EC50 ([1]; read-out: EC50 ± SEM): 248 ± 67 nM | T1/2 [3]: >60 min

O=C(Nc1nc(-c2ccc(-c3ccncc3)cc2)cs1)C1CC1 [Compound 39, Cyclopropanecarboxylic acid [4-(4-pyridin-4-yl-phenyl)-thiazol-2-yl]-amide trifluoroacetic acid salt]
EC50 [1, 4]: 173 ± 16 nM

Cc1ncccc1-c1ccc(-c2csc(NC(=O)C3CC3)n2)cc1 [Compound 40, Cyclopropanecarboxylic acid {4-[4-(2-methyl-pyridin-3-yl)-phenyl]-thiazol-2-yl}-amide]
EC50 [1, 4]: > 10000 nM

CN(C)c1ccc(-c2ccc(-c3csc(NC(=O)C4CC4)n3)cc2)cn1 [Compound 41, Cyclopropanecarboxylic acid {4-[4-(6-dimethylamino-pyridin-3-yl)-phenyl]-thiazol-2-yl}-amide]
EC50 [1, 4]: 109 ± 12 nM

Cn1nccc1-c1ccc(-c2csc(NC(=O)C3CC3)n2)cc1 [Compound 42, Cyclopropanecarboxylic acid {4-[4-(2-methyl-2H-pyrazol-3-yl)-phenyl]-thiazol-2-yl}-amide]
EC50 [1, 4]: > 10000 nM

Cc1noc(C)c1-c1ccc(-c2csc(NC(=O)C3CC3)n2)cc1 [Compound 43, Cyclopropanecarboxylic acid {4-[4-(3,5-dimethyl-isoxazol-4-yl)-phenyl]-thiazol-2-yl}-amide]
EC50 [1, 4]: > 10000 nM

COCCOc1cc(-c2ccc(-c3csc(NC(=O)C4CC4)n3)cc2)ccn1 [Compound 44, N-(4-(4-(2-(2-methoxyethoxy)pyridin-4-yl)phenyl)thiazol-2-yl)cyclopropanecarboxamide]
EC50 [1, 4]: 1320 ± 233 nM

CN1CCN(c2cc(-c3ccc(-c4csc(NC(=O)C5CC5)n4)cc3)ccn2)CC1 [Compound 45, N-(4-(4-(2-(4-methylpiperazin-1-yl)pyridin-4-yl)phenyl)thiazol-2-yl)cyclopropanecarboxamide]
EC50 [1, 4]: 682 ± 100 nM | Cmax (in vivo): 250 ± 110 nM | AUC (in vivo; AUC (μM *h) Brain): 1.29 ± 0.02 µM·h | AUC (in vivo; AUC (μM *h) Plasma): 0.76 ± 0.01 µM·h | half-life (in vitro): 4.4 min

COCCOc1ccc(-c2ccc(-c3csc(NC(=O)C4CC4)n3)cc2)cn1 [Compound 46, N-(4-(4-(6-(2-methoxyethoxy)pyridin-3-yl)phenyl)thiazol-2-yl)cyclopropanecarboxamide]
EC50 [1, 4]: 118 ± 11 nM | Cmax (in vivo): 150 ± 10 nM | AUC (in vivo; AUC (μM *h) Brain): 0.32 µM·h | AUC (in vivo; AUC (μM *h) Plasma): 0.26 ± 0.01 µM·h | half-life (in vitro): 55 min

CN1CCN(c2ccc(-c3ccc(-c4csc(NC(=O)C5CC5)n4)cc3)cn2)CC1 [Compound 47, N-(4-(4-(6-(4-methylpiperazin-1-yl)pyridin-3-yl)pheyl)thiazol-2-yl)cyclopropanecarboxamide]
EC50 ([1]; read-out: EC50 ± SEM): 70 ± 23 nM | T1/2 [3]: 2.5 min
